We go through two compounds from patent US20230102192A1, “THERAPIES FOR THE TREATMENT OF DISEASES AND DISORDERS ASSOCIATED WITH ABNORMAL EXPRESSION OF A NEURAL-ASSOCIATED GENE” (The Regents of the University of California, priority 2020, published 2023).

Broadly, the IC50 is the concentration that inhibits the measured activity by half.

Data set [1] deals with MECP2-KO neurons. The data set is described as follows: Co-localized pre/postsynaptic puncta quantification in neurons. It counts as cell-based, human. Conditions: one-month old MECP2-KO neurons treated two weeks. On the procedure: Pharmacologic treatment. One-month old cortical organoids were treated for 1 mo with either Nefiracetam (10 μM) or PHA 543613 (10 μM) during media changes.
Synaptic puncta quantification. Co-localized pre and postsynaptic puncta (Vglut and Homer1 immunostained) along MAP2-positive processes were quantified. Primary antibodies (see above) incubated 2 h, secondary antibodies incubated 1 h, and coverslips were mounted. Slides were analyzed under fluorescence microscopy.
Pharmacologic screening identifies two compounds that specifically reverse MECP2-KO phenotypes. 14 commercially available pharmacologic compounds with mechanisms of action that counteract the synapse and neurotransmitter pathologies were selected and which are identified in FIG. 5B. […] MECP2-KO and control neurons were treated with each of the 14 compounds and employed a tiered series of assays to identify those that could selectively rescue MECP2-KO pathology without affecting controls. […] The capacity of these compounds to increase pre and post co-localized synaptic puncta in MECP2-KO neurons were evaluated, again eliminating the drugs that affected control neurons (see FIG. 5F-G, and FIG. 6C-D).

In data set [2] the test system is MECP2-mosaic (CTR/KO) neurospheres. Description: Calcium imaging of neurospheres. It counts as cell-based, human. Conditions: for calcium transient amplitude: P=0.255. On the procedure:
Calcium imaging. Calcium imaging was performed as described in Chailangkarn et al. Briefly, PSC-derived neuronal networks were lentivirally transduced with a Syn::RFP reporter construct. Cultures were washed with Krebs HEPES buffer and incubated with Fluo-4AM (Molecular Probes/Invitrogen, Carlsbad, Calif., USA). A Hamamatsu ORCA-ER digital camera (Hamamatsu Photonics, Japan) with 488 nm filter on an Olympus IX81 inverted fluorescence confocal microscope (Olympus Optical, Tokyo, Japan) acquired 5000 frames at 28 Hz in a 256×256 pixel region (100× magnification). Images were acquired with MetaMorph7.7 (MDS Analytical Technologies, Sunnyvale, Calif., USA) and analyzed with ImageJ and Matlab7.2 (Mathworks, Natick, Mass., USA). Syn::RFP+ neurons were selected following tetrodotoxin blockade of calcium transients. A 95th-percentile threshold of amplitude for calcium spikes was set for event detection; signal amplitude is presented as fluorescence change (ΔF/F) following background subtraction.
Nefiracetam and PHA 543613 increase activity in MECP2-mosaic neurospheres. Because MECP2 resides on the X chromosome, random X-inactivation in females can produce a genetic pattern of mosaicism, with consequent phenotypic gradation, in which some cells express the normal allele while others are mutant. Therefore, as the next stage to evaluate the two drug candidates, a neurosphere model of MECP2 mosaicism was developed to mimic the female RTT brain by combining different proportions of control and MECP2-KO NPCs (see FIG. 7A-C). […] Calcium transient frequency in MECP2-mosaic neurospheres was increased by treatment with Nefiracetam in isolation (1 μM, P<0.05) and when combined with PHA 543613 (10 μM, P<0.001; FIG. 7H), but calcium transient amplitude was unaffected by either compound (P=0.255; FIG. 7I). To investigate the impact of the drug treatments on the electrophysiological properties of the MECP2-mosaic model, neurospheres treated with 1 μM Nefiracetam, 1 μM PHA 543613, or both Nefiracetam and PHA 543613 were plated to perform MEA analysis. […]

The test system of data set [3] is MECP2-KO cortical organoids. The data set is described as follows: Nuclei size in cortical organoids. It counts as cell-based, human. As to conditions: vs KO untreated.
Data set [4] concerns the target α7 subtype of neural nicotinic acetylcholine receptors (Homo sapiens, UniProt P36544). As to conditions: cited from earlier work.
For data set [5] the following is noted: in vivo, cited from earlier work.
Data set [6] has as its target GABAA receptor. As to conditions: read-out: affinity for the GABAA receptor (IC50); cited from earlier work.
For data set [7] the following is noted: cited from earlier work.

Read-outs that look alike come from different tables or passages of the source.

α7 subtype of neural nicotinic acetylcholine receptors, sequence (P36544 23-502): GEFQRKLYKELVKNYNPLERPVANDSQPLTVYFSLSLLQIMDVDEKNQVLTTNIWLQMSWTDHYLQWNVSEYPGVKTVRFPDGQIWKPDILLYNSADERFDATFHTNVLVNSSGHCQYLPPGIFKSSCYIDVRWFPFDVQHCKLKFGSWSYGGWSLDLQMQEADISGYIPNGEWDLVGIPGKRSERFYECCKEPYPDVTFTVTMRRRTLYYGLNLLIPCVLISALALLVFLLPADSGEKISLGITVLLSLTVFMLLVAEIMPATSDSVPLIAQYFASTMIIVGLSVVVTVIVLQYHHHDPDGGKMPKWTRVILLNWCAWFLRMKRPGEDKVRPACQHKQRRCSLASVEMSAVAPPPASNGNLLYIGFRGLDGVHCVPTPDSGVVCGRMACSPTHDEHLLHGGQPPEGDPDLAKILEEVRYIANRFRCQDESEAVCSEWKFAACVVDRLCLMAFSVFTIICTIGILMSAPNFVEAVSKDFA

Turning to `O=C(N[C@H]1CN2CCC1CC2)c1cc2ccoc2cn1` [PHA 543613, N-[(3R)-1-azabicyclo[2.2.2]oct-3-yl]furo[2,3-c]pyridine-5-carboxamide], the “synaptogenesis / co-localized synaptic puncta” value in data set [1] was “increases synaptic puncta”. In addition, in data set [2], the calcium transient amplitude result is listed as “unaffected”. Also, the “nuclei size in cortical organoids” value in data set [3] is given as “did not rescue”. Further, in data set [4], the “agonist activity at α7 nAChR” value is “potent and selective agonist”. Besides, the brain penetration result in data set [5] is recorded as “rapid brain penetration”; in data set [5] (listed as PHA-543613), “high level of brain penetration”. For the same compound, the oral bioavailability entry in data set [5] was “high oral bioavailability”; in data set [5] (listed as PHA-543613), “good oral bioavailability”.
Turning to `Cc1cccc(C)c1NC(=O)CN1CCCC1=O` [Nefiracetam, nefiracetam], the “synaptogenesis / co-localized synaptic puncta” value in data set [1] was “specifically increased synaptogenesis”. In addition, the calcium transient frequency entry in data set [2] (1 μM, in isolation, P<0.05 vs CTR/KO untreated) is “increased”. The calcium transient amplitude result in data set [2] was “unaffected”. Further, in data set [3], the “nuclei size in cortical organoids” value is reported as “did not rescue”. The IC50 in data set [6] is 8.5 nM. For the same compound, in data set [7] (clinical trials), the “toxicity during clinical trials” value is recorded as “no evidence of toxicity”. Besides, in data set [7] (humans and primates), the “toxicity on long-term consumption” value is “no toxicity”.
